The structures appear in SMILES notation. Square brackets hold non-standard residues; d marks the D form. Peptide text beside a SMILES is read from it. ξ: configuration not given here. Ile(3ξ) = CCC(C)[C@H](N)C(=O)O

The test addresses T1, VIP peptides (Rattus norvegicus, UniProt P01283).
T1 sequence (P01283 whole entry): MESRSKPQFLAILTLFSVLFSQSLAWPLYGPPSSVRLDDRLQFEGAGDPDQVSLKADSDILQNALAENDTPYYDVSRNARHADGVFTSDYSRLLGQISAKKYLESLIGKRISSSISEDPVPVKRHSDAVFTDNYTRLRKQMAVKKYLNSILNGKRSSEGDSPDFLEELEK
As to `CCC(C)[C@H](NC(=O)CNC(=O)[C@H](CC(=O)O)NC(=O)[C@@H](N)CO)C(=O)N[C@@H](Cc1ccccc1)C(=O)N[C@H](C(=O)N[C@@H](CC(=O)O)C(=O)N[C@@H](CO)C(=O)N[C@@H](Cc1ccc(O)cc1)C(=O)N[C@@H](CO)C(=O)N[C@@H](CCCN=C(N)N)C(=O)N[C@@H](Cc1ccc(O)cc1)C(=O)N[C@@H](CCCN=C(N)N)C(=O)N[C@@H](CCCCN)C(=O)N[C@@H](CCC(N)=O)C(=O)N[C@@H](CCSC)C(=O)N[C@@H](C)C(=O)N[C@H](C(=O)N[C@@H](CCCCN)C(=O)N[C@@H](CCCCN)C(=O)N[C@@H](Cc1ccc(O)cc1)C(=O)N[C@@H](CC(C)C)C(=O)N[C@@H](C)C(=O)N[C@@H](C)C(=O)N[C@H](C(=O)N[C@@H](CC(C)C)C(=O)NCC(=O)N[C@@H](CCCCN)C(=O)N[C@@H](CCCN=C(N)N)C(=O)N[C@@H](Cc1ccc(O)cc1)C(=O)N[C@@H](CCCCN)C(=O)N[C@@H](CCC(N)=O)C(=O)N[C@@H](CCCN=C(N)N)C(=O)N[C@H](C(=O)N[C@@H](CCCCN)C(=O)N[C@@H](CC(N)=O)C(=O)N[C@@H](CCCCN)C(N)=O)C(C)C)C(C)C)C(C)C)[C@@H](C)O` (stereo not given in full) [PACAP(2-38)] (H-SDG[Ile(3ξ)]FTDSYSRYRKQMAVKKYLAAVLGKRYKQRVKNK-NH2), the inhibition constant Ki was 80 nM.

Compound `CCC(C)[C@H](NC(=O)CNC(=O)[C@@H](N)CC(=O)O)C(=O)N[C@@H](Cc1ccccc1)C(=O)N[C@H](C(=O)N[C@@H](CC(=O)O)C(=O)N[C@@H](CO)C(=O)N[C@@H](Cc1ccc(O)cc1)C(=O)N[C@@H](CO)C(=O)N[C@@H](CCCN=C(N)N)C(=O)N[C@@H](Cc1ccc(O)cc1)C(=O)N[C@@H](CCCN=C(N)N)C(=O)N[C@@H](CCCCN)C(=O)N[C@@H](CCC(N)=O)C(=O)N[C@@H](CCSC)C(=O)N[C@@H](C)C(=O)N[C@H](C(=O)N[C@@H](CCCCN)C(=O)N[C@@H](CCCCN)C(=O)N[C@@H](Cc1ccc(O)cc1)C(=O)N[C@@H](CC(C)C)C(=O)N[C@@H](C)C(=O)N[C@@H](C)C(=O)N[C@H](C(=O)N[C@@H](CC(C)C)C(=O)NCC(=O)N[C@@H](CCCCN)C(=O)N[C@@H](CCCN=C(N)N)C(=O)N[C@@H](Cc1ccc(O)cc1)C(=O)N[C@@H](CCCCN)C(=O)N[C@@H](CCC(N)=O)C(=O)N[C@@H](CCCN=C(N)N)C(=O)N[C@H](C(=O)N[C@@H](CCCCN)C(=O)N[C@@H](CC(N)=O)C(=O)N[C@@H](CCCCN)C(N)=O)C(C)C)C(C)C)C(C)C)[C@@H](C)O` (stereo not given in full) [PACAP(3-38)] (H-DG[Ile(3ξ)]FTDSYSRYRKQMAVKKYLAAVLGKRYKQRVKNK-NH2) yielded a Ki of 800 nM. Compared with the last compound, the Ki is about 10-fold higher.

As to `CCC(C)[C@H](NC(=O)CN)C(=O)N[C@@H](Cc1ccccc1)C(=O)N[C@H](C(=O)N[C@@H](CC(=O)O)C(=O)N[C@@H](CO)C(=O)N[C@@H](Cc1ccc(O)cc1)C(=O)N[C@@H](CO)C(=O)N[C@@H](CCCN=C(N)N)C(=O)N[C@@H](Cc1ccc(O)cc1)C(=O)N[C@@H](CCCN=C(N)N)C(=O)N[C@@H](CCCCN)C(=O)N[C@@H](CCC(N)=O)C(=O)N[C@@H](CCSC)C(=O)N[C@@H](C)C(=O)N[C@H](C(=O)N[C@@H](CCCCN)C(=O)N[C@@H](CCCCN)C(=O)N[C@@H](Cc1ccc(O)cc1)C(=O)N[C@@H](CC(C)C)C(=O)N[C@@H](C)C(=O)N[C@@H](C)C(=O)N[C@H](C(=O)N[C@@H](CC(C)C)C(=O)NCC(=O)N[C@@H](CCCCN)C(=O)N[C@@H](CCCN=C(N)N)C(=O)N[C@@H](Cc1ccc(O)cc1)C(=O)N[C@@H](CCCCN)C(=O)N[C@@H](CCC(N)=O)C(=O)N[C@@H](CCCN=C(N)N)C(=O)N[C@H](C(=O)N[C@@H](CCCCN)C(=O)N[C@@H](CC(N)=O)C(=O)N[C@@H](CCCCN)C(N)=O)C(C)C)C(C)C)C(C)C)[C@@H](C)O` (stereo not given in full) [PACAP(4-38)] (H-G[Ile(3ξ)]FTDSYSRYRKQMAVKKYLAAVLGKRYKQRVKNK-NH2), the Ki is 800 nM. The same measure for `CC[C@H](C)[C@H](NC(=O)[C@H](CO)NC(=O)[C@H](CC(N)=O)NC(=O)[C@H](CC(C)C)NC(=O)[C@H](Cc1ccc(O)cc1)NC(=O)[C@H](CCCCN)NC(=O)[C@H](CCCCN)NC(=O)[C@@H](NC(=O)[C@H](C)NC(=O)[C@H](CCSC)NC(=O)[C@H](CCC(N)=O)NC(=O)[C@H](CCCCN)NC(=O)[C@H](CCCN=C(N)N)NC(=O)[C@H](CC(C)C)NC(=O)[C@H](CCCN=C(N)N)NC(=O)[C@@H](NC(=O)[C@H](Cc1ccc(O)cc1)NC(=O)[C@H](CC(N)=O)NC(=O)[C@H](CC(=O)O)NC(=O)[C@@H](NC(=O)[C@H](Cc1ccccc1)NC(=O)[C@@H](NC(=O)[C@H](C)NC(=O)[C@@H](N)CC(=O)O)C(C)C)[C@@H](C)O)[C@@H](C)O)C(C)C)C(=O)N[C@@H](CC(C)C)C(=O)N[C@@H](CC(N)=O)C(N)=O` [VIP(3-28)] (H-DAVFTDNYTRLRKQMAVKKYLNSILN-NH2): 3000 nM; for `CCC(C)[C@H](NC(=O)CN)C(=O)N[C@@H](Cc1ccccc1)C(=O)N[C@H](C(=O)N[C@@H](CC(=O)O)C(=O)N[C@@H](CO)C(=O)N[C@@H](Cc1ccc(O)cc1)C(=O)N[C@@H](CO)C(=O)N[C@@H](CCCN=C(N)N)C(=O)N[C@@H](Cc1ccc(O)cc1)C(=O)N[C@@H](CCCN=C(N)N)C(=O)N[C@@H](CCCCN)C(=O)N[C@@H](CCC(N)=O)C(=O)N[C@@H](CCSC)C(=O)N[C@@H](C)C(=O)N[C@H](C(=O)N[C@@H](CCCCN)C(=O)N[C@@H](CCCCN)C(=O)N[C@@H](Cc1ccc(O)cc1)C(=O)N[C@@H](CC(C)C)C(=O)N[C@@H](C)C(=O)N[C@@H](C)C(=O)N[C@H](C(=O)N[C@@H](CC(C)C)C(N)=O)C(C)C)C(C)C)[C@@H](C)O` (stereo not given in full) [PACAP(4-27)] (H-G[Ile(3ξ)]FTDSYSRYRKQMAVKKYLAAVL-NH2): 800 nM.

One may read the Ki as the equilibrium dissociation constant of an inhibitor or competing ligand from its target. A high value points to weaker binding.
